Test results as given in ChEMBL document CHEMBL3044741, “Synthesis of novel biologically active methylene derivatives of sydnones” (Med Chem Res, 2013).
Values after ≈ are worked out from the molar mass of the structure shown.

Tests used:
[1] = tested on: Human immunodeficiency virus 1; experiment: Antiviral activity against HIV1 3B infected in MT4 cells assessed as inhibition of virus-induced cytopathogenicity by MTT assay; type: functional, organism-based; details: Human immunodeficiency virus 1, 3B
[2] = Selectivity index, ratio of CC50 for human MT4 cells to IC50 for HIV1 3B; type: functional
Aspergillus clavatus [3] = experiment: Antifungal activity against Aspergillus clavatus MTCC 1323; type: functional
Aspergillus niger [4] = experiment: Antifungal activity against Aspergillus niger MTCC 282; type: functional
Human alphaherpesvirus 3 [5] = experiment: Antiviral activity against Varicella-zoster virus Oka expressing thymidine kinase infected in HEL cells assessed as reduction in plaque formation; type: functional, organism-based; details: Human alphaherpesvirus 3, strain Oka vaccine
Escherichia coli [6] = experiment: Antibacterial activity against Escherichia coli MTCC 443 at 250 ug/ml after 24 hrs by Kirby-Bauer method; type: functional; details: MTCC 443, 24 h, read-out: IZ
[7] = Cytotoxicity against human HEL cells assessed as alteration in cell morphology; type: cell-based
[8] = Cytotoxicity against human HEL cells; type: cell-based
Streptococcus pyogenes [9] = experiment: Antibacterial activity against Streptococcus pyogenes MTCC 442 after 24 hrs by broth dilution method; type: functional; details: MTCC 442, 24 h
Candida albicans [10] = experiment: Antifungal activity against Candida albicans MTCC 227 at 250 ug/ml after 74 hrs by Kirby-Bauer method; type: functional; details: MTCC 227, 74 h, read-out: IZ
[11] = Selectivity index, ratio of CC50 for human MT4 cells to IC50 for HIV2 ROD; type: functional
Pseudomonas aeruginosa [12] = experiment: Antibacterial activity against Pseudomonas aeruginosa MTCC 424 at 250 ug/ml after 24 hrs by Kirby-Bauer method; type: functional; details: MTCC 424, 24 h, read-out: IZ
Cytomegalovirus [13] = experiment: Antiviral activity against Cytomegalovirus Davis in HEL cells assessed as reduction in plaque formation; type: functional, organism-based; details: Human betaherpesvirus 5, Davis
Staphylococcus aureus [14] = experiment: Antibacterial activity against Staphylococcus aureus MTCC 96 at 250 ug/ml after 24 hrs by Kirby-Bauer method; type: functional; details: MTCC 96, 24 h, read-out: IZ
[15] = Cytotoxicity against human MT4 cells by MTT assay; type: cell-based
Streptococcus pyogenes [16] = experiment: Antibacterial activity against Streptococcus pyogenes MTCC 442 at 250 ug/ml after 24 hrs by Kirby-Bauer method; type: functional; details: MTCC 442, 24 h, read-out: IZ
Pseudomonas aeruginosa [17] = experiment: Antibacterial activity against Pseudomonas aeruginosa MTCC 424 after 24 hrs by broth dilution method; type: functional; details: MTCC 424, 24 h
Human alphaherpesvirus 3 [18] = experiment: Antiviral activity against thymidine kinase-deficient Varicella-zoster virus infected in HEL cells assessed as reduction in plaque formation; type: functional, organism-based; details: Human alphaherpesvirus 3, HEL
Aspergillus clavatus [19] = experiment: Antifungal activity against Aspergillus clavatus MTCC 1323 at 250 ug/ml after 74 hrs by Kirby-Bauer method; type: functional; details: MTCC 1323, 74 h, read-out: IZ
[20] = tested on: Human immunodeficiency virus 2; experiment: Antiviral activity against HIV2 ROD infected in MT4 cells assessed as inhibition of virus-induced cytopathogenicity by MTT assay; type: functional, organism-based; details: Human immunodeficiency virus 2, ISOLATE ROD
Candida albicans [21] = experiment: Antifungal activity against Candida albicans MTCC 227; type: functional
Aspergillus niger [22] = experiment: Antifungal activity against Aspergillus niger MTCC 282 at 250 ug/ml after 74 hrs by Kirby-Bauer method; type: functional; details: MTCC 282, 74 h, read-out: IZ
Cytomegalovirus [23] = experiment: Antiviral activity against Cytomegalovirus AD-169 infected in HEL cells assessed as reduction in plaque formation; type: functional, organism-based; details: Human betaherpesvirus 5, AD-169, HEL
Staphylococcus aureus [24] = experiment: Antibacterial activity against Staphylococcus aureus MTCC 96 after 24 hrs by broth dilution method; type: functional; details: MTCC 96, 24 h
Escherichia coli [25] = experiment: Antibacterial activity against Escherichia coli MTCC 443 after 24 hrs by broth dilution method; type: functional; details: MTCC 443, 24 h

CC(=O)N1CCN(Cc2c([O-])on[n+]2-c2ccc(Cc3ccc(-[n+]4noc([O-])c4CN4CCN(C(C)=O)CC4)cc3)cc2)CC1
IC50 [1]: > 12 µg/mL | Ratio CC50/IC50 [2]: <1 | MIC (Aspergillus clavatus [3]): 250 µg/mL (≈ 405 µM) | MIC (Aspergillus niger [4]): 1000 µg/mL (≈ 1620 µM) | EC50 (Human alphaherpesvirus 3 [5]): > 0.8 µg/mL | zone of inhibition at 250 µg/mL (Escherichia coli [6]): 18 mm | MCC [7]: 20 µg/mL | CC50 [8]: 10.2 µg/mL (≈ 16.5 µM) | MIC (Streptococcus pyogenes [9]): 100 µg/mL (≈ 162 µM) | zone of inhibition at 250 µg/mL (Candida albicans [10]): 23 mm | Ratio CC50/IC50 [11]: <1 | zone of inhibition at 250 µg/mL (Pseudomonas aeruginosa [12]): 18 mm | EC50 (Cytomegalovirus [13]): > 4 µg/mL | zone of inhibition at 250 µg/mL (Staphylococcus aureus [14]): 20 mm | CC50 [15]: 12 µg/mL (≈ 19.4 µM) | zone of inhibition at 250 µg/mL (Streptococcus pyogenes [16]): 16 mm | MIC (Pseudomonas aeruginosa [17]): 200 µg/mL (≈ 324 µM) | EC50 (Human alphaherpesvirus 3 [18]): > 0.8 µg/mL | zone of inhibition at 250 µg/mL (Aspergillus clavatus [19]): 25 mm | IC50 [20]: > 12 µg/mL | MIC (Candida albicans [21]): 250 µg/mL (≈ 405 µM) | zone of inhibition at 250 µg/mL (Aspergillus niger [22]): 21 mm | EC50 (Cytomegalovirus [23]): > 4 µg/mL | MIC (Staphylococcus aureus [24]): 250 µg/mL (≈ 405 µM) | MIC (Escherichia coli [25]): 250 µg/mL (≈ 405 µM)
